Test results as given in ChEMBL document CHEMBL1201862, “PubChem BioAssay data set” (2004).
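Grown in 96-well plates, cells were treated for 48 hours with each compound at five concentrations. Insufficient inhibition: endpoint recorded as highest concentration tested. Abbreviation: GI50, concentration required for 50% inhibition of growth.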 Calls of active or inactive are those of the source. Rule as the data show it: active = GI50 up to about 1.1 µM and inactive = higher.

Columns and labels:
Experiment in all cases: inhibition of tumour cell growth, NCI panel, 48 h
SNB-75 = system: SNB-75
COLO 205 = system: COLO 205
K562 = system: K562
MDA-N = system: MDA-N
BT-549 = system: BT-549
RPMI-8226 = system: RPMI-8226
MDA-MB-231 = system: MDA-MB-231
KM12 = system: KM12
MOLT-4 = system: MOLT-4
SF-539 = system: SF-539
OVCAR-3 = system: OVCAR-3
LOX IMVI = system: LOX IMVI
ACHN = system: ACHN
SNB-19 = system: SNB-19
UACC-62 = system: UACC-62
HCC 2998 = system: HCC 2998
SF-268 = system: SF-268
SN12C = system: SN12C
MCF7 = system: MCF7
HOP-62 = system: HOP-62
TK-10 = system: TK-10
T47D = system: T47D
SK-MEL-28 = system: SK-MEL-28
HOP-92 = system: HOP-92
IGROV-1 = system: IGROV-1
UACC-257 = system: UACC-257
MDA-MB-435 = system: MDA-MB-435
SK-MEL-5 = system: SK-MEL-5
HCT-15 = system: HCT-15
SR = system: SR
NCI-H460 = system: NCI-H460
OVCAR-5 = system: OVCAR-5
M14 = system: M14
A498 = system: A498
UO-31 = system: UO-31
SF-295 = system: SF-295
DU-145 = system: DU-145
SK-MEL-2 = system: SK-MEL-2
PC-3 = system: PC-3
786-0 = system: 786-0
Hs-578T = system: Hs-578T
EKVX = system: EKVX
A549 = system: A549
NCI-H23 = system: NCI-H23
NCI/ADR-RES = system: NCI/ADR-RES
CCRF-CEM = system: CCRF-CEM
SW-620 = system: SW-620
U-251 = system: U-251
OVCAR-4 = system: OVCAR-4
HL-60 = system: HL-60
CAKI-1 = system: CAKI-1
HCT-116 = system: HCT-116
RXF 393 = system: RXF 393
Malme-3M = system: Malme-3M
HT-29 = system: HT-29
SK-OV-3 = system: SK-OV-3
NCI-H522 = system: NCI-H522
OVCAR-8 = system: OVCAR-8
NCI-H226 = system: NCI-H226

How did the GI50 (SNB-75) turn out when CC1(C)CN=C(c2ccc3ccccc3c2O)N1 was run?
Its GI50 is > 100 µM (inactive).

What about the GI50 (COLO 205) of the same compound?
The GI50 was > 100 µM (inactive).

What about the GI50 (K562) of the same compound?
The GI50 was > 100 µM (inactive).

What about the GI50 (MDA-N) of the same compound?
Its GI50 is > 100 µM (inactive).

And the GI50 (BT-549)?
Its GI50 is > 100 µM (inactive).

What about the GI50 (RPMI-8226) of the same compound?
Its GI50 is > 100 µM (inactive).

And the GI50 (MDA-MB-231)?
The GI50 was > 100 µM (inactive).

What about the GI50 (KM12) of the same compound?
Its GI50 is > 100 µM (inactive).

What about the GI50 (MOLT-4) of the same compound?
The GI50 was > 100 µM (inactive).

What about the GI50 (SF-539) of the same compound?
The GI50 was > 100 µM (inactive).

And the GI50 (OVCAR-3)?
The GI50 was 22.2 µM (inactive).

What about the GI50 (LOX IMVI) of the same compound?
The GI50 was > 100 µM (inactive).

What about the GI50 (ACHN) of the same compound?
The GI50 was > 100 µM (inactive).

What about the GI50 (SNB-19) of the same compound?
The GI50 was > 100 µM (inactive).

And the GI50 (UACC-62)?
The GI50 was > 100 µM (inactive).

What about the GI50 (HCC 2998) of the same compound?
The GI50 was > 100 µM (inactive).

What about the GI50 (SF-268) of the same compound?
Its GI50 is > 100 µM (inactive).

What about the GI50 (SN12C) of the same compound?
The GI50 was > 100 µM (inactive).

What about the GI50 (MCF7) of the same compound?
The GI50 was > 100 µM (inactive).

What about the GI50 (HOP-62) of the same compound?
The GI50 was > 100 µM (inactive).

What about the GI50 (TK-10) of the same compound?
Its GI50 is > 100 µM (inactive).

What about the GI50 (T47D) of the same compound?
The GI50 was > 100 µM (inactive).

What about the GI50 (SK-MEL-28) of the same compound?
The GI50 was > 100 µM (inactive).

What about the GI50 (HOP-92) of the same compound?
Its GI50 is > 100 µM (inactive).

What about the GI50 (IGROV-1) of the same compound?
The GI50 was > 100 µM (inactive).

And the GI50 (UACC-257)?
Its GI50 is > 100 µM (inactive).

And the GI50 (MDA-MB-435)?
The GI50 was > 100 µM (inactive).

What about the GI50 (SK-MEL-5) of the same compound?
The GI50 was > 100 µM (inactive).

And the GI50 (HCT-15)?
Its GI50 is greater than 100 µM.

What about the GI50 (SR) of the same compound?
Its GI50 is > 100 µM (inactive).

And the GI50 (NCI-H460)?
The GI50 was > 100 µM (inactive).

And the GI50 (OVCAR-5)?
Its GI50 is > 100 µM (inactive).

What about the GI50 (M14) of the same compound?
The GI50 was > 100 µM (inactive).

And the GI50 (A498)?
The GI50 was > 100 µM (inactive).

What about the GI50 (UO-31) of the same compound?
The GI50 was > 100 µM (inactive).

And the GI50 (SF-295)?
Its GI50 is 2.27 µM (inactive).

And the GI50 (DU-145)?
The GI50 was > 100 µM (inactive).

What about the GI50 (SK-MEL-2) of the same compound?
The GI50 was > 100 µM (inactive).

What about the GI50 (PC-3) of the same compound?
The GI50 was > 100 µM (inactive).

What about the GI50 (786-0) of the same compound?
Its GI50 is > 100 µM (inactive).

And the GI50 (Hs-578T)?
Its GI50 is > 100 µM (inactive).

And the GI50 (EKVX)?
Its GI50 is > 100 µM (inactive).

What about the GI50 (A549) of the same compound?
Its GI50 is 23.6 µM (inactive).

And the GI50 (NCI-H23)?
The GI50 was > 100 µM (inactive).

What about the GI50 (NCI/ADR-RES) of the same compound?
The GI50 was > 100 µM (inactive).

And the GI50 (CCRF-CEM)?
The GI50 was > 100 µM (inactive).

And the GI50 (SW-620)?
The GI50 was > 100 µM (inactive).

What about the GI50 (U-251) of the same compound?
The GI50 was > 100 µM (inactive).

And the GI50 (OVCAR-4)?
Its GI50 is > 100 µM (inactive).

What about the GI50 (HL-60) of the same compound?
Its GI50 is > 100 µM (inactive).

What about the GI50 (CAKI-1) of the same compound?
Its GI50 is > 100 µM (inactive).

What about the GI50 (HCT-116) of the same compound?
Its GI50 is > 100 µM (inactive).

For CCCCc1ccc(Nc2nc3ncnc-3c[nH]2)cc1, which GI50 (SNB-75) is on record?
Its GI50 is 14.6 µM (inactive).

And the GI50 (RXF 393)?
The GI50 was 18.5 µM (inactive).

And the GI50 (COLO 205)?
Its GI50 is 16.7 µM (inactive).

And the GI50 (K562)?
Its GI50 is 33.3 µM (inactive).

What about the GI50 (MDA-N) of the same compound?
Its GI50 is 32.8 µM (inactive).

And the GI50 (BT-549)?
The GI50 was 25.7 µM (inactive).

What about the GI50 (RPMI-8226) of the same compound?
The GI50 was 14.8 µM (inactive).

What about the GI50 (MDA-MB-231) of the same compound?
Its GI50 is 12.8 µM (inactive).

What about the GI50 (KM12) of the same compound?
Its GI50 is 19.4 µM (inactive).

What about the GI50 (MOLT-4) of the same compound?
Its GI50 is 14.3 µM (inactive).

What about the GI50 (SF-539) of the same compound?
The GI50 was 26.7 µM (inactive).

What about the GI50 (OVCAR-3) of the same compound?
Its GI50 is 14.2 µM (inactive).

What about the GI50 (Malme-3M) of the same compound?
The GI50 was 19.6 µM (inactive).

And the GI50 (LOX IMVI)?
Its GI50 is 20.5 µM (inactive).

What about the GI50 (ACHN) of the same compound?
Its GI50 is 15.2 µM (inactive).

And the GI50 (HT-29)?
The GI50 was 21 µM (inactive).

And the GI50 (SNB-19)?
The GI50 was 18.2 µM (inactive).

What about the GI50 (UACC-62) of the same compound?
Its GI50 is 21 µM (inactive).

And the GI50 (HCC 2998)?
Its GI50 is 16.8 µM (inactive).

What about the GI50 (SF-268) of the same compound?
Its GI50 is 16.3 µM (inactive).

What about the GI50 (SN12C) of the same compound?
The GI50 was 18.8 µM (inactive).

What about the GI50 (MCF7) of the same compound?
The GI50 was 29.6 µM (inactive).

And the GI50 (HOP-62)?
The GI50 was 17.7 µM (inactive).

What about the GI50 (TK-10) of the same compound?
The GI50 was 17 µM (inactive).

And the GI50 (T47D)?
The GI50 was 19.1 µM (inactive).

What about the GI50 (SK-OV-3) of the same compound?
The GI50 was 18.4 µM (inactive).

What about the GI50 (HOP-92) of the same compound?
The GI50 was 21.8 µM (inactive).

And the GI50 (IGROV-1)?
Its GI50 is 17.3 µM (inactive).

And the GI50 (UACC-257)?
The GI50 was 21.2 µM (inactive).

What about the GI50 (MDA-MB-435) of the same compound?
Its GI50 is 33.7 µM (inactive).

What about the GI50 (SK-MEL-5) of the same compound?
The GI50 was 16.6 µM (inactive).

And the GI50 (HCT-15)?
The GI50 was 17.5 µM.

And the GI50 (SR)?
Its GI50 is > 10 µM (inactive).

What about the GI50 (OVCAR-5) of the same compound?
Its GI50 is 37.2 µM (inactive).

And the GI50 (NCI-H522)?
The GI50 was 21.6 µM (inactive).

What about the GI50 (M14) of the same compound?
The GI50 was 18.6 µM (inactive).

And the GI50 (A498)?
Its GI50 is 26.1 µM (inactive).

What about the GI50 (UO-31) of the same compound?
Its GI50 is 12.5 µM (inactive).

And the GI50 (OVCAR-8)?
Its GI50 is 17.8 µM (inactive).

And the GI50 (SF-295)?
Its GI50 is 18.2 µM (inactive).

And the GI50 (DU-145)?
Its GI50 is 15.9 µM (inactive).

What about the GI50 (SK-MEL-2) of the same compound?
Its GI50 is 20.2 µM (inactive).

And the GI50 (786-0)?
The GI50 was 25.6 µM (inactive).

And the GI50 (Hs-578T)?
Its GI50 is 5.52 µM (inactive).

And the GI50 (EKVX)?
The GI50 was 25.8 µM (inactive).

And the GI50 (A549)?
The GI50 was 21.7 µM (inactive).

And the GI50 (NCI-H23)?
Its GI50 is 18.2 µM (inactive).

And the GI50 (NCI/ADR-RES)?
Its GI50 is 18.3 µM (inactive).

What about the GI50 (CCRF-CEM) of the same compound?
The GI50 was 7.94 µM (inactive).

And the GI50 (SW-620)?
The GI50 was 20.4 µM (inactive).

And the GI50 (U-251)?
The GI50 was 22.1 µM (inactive).

And the GI50 (NCI-H226)?
The GI50 was 15.9 µM (inactive).

And the GI50 (OVCAR-4)?
The GI50 was 25.3 µM (inactive).

What about the GI50 (HL-60) of the same compound?
Its GI50 is 38.5 µM (inactive).

And the GI50 (CAKI-1)?
Its GI50 is 19.4 µM (inactive).

And the GI50 (HCT-116)?
The GI50 was 20.2 µM (inactive).
